Read-outs that look alike come from different tables or passages of the source. Strand notation (5' to 3'): a small letter for the sugar, then the base; units joined by * are phosphorothioate-linked, units joined directly phosphodiester-linked; [ ] holds rarer units or linkages, { } end groups; capitals alone tell only the bases. {MOP} = methoxy, phosphonate-4'-oxy on the 2'-O-methyluridine at position 1; m = 2'-O-methyl; f = 2'-fluoro

Data set [1] deals with HBV. It counts as in vivo. The note with it: HDI mice; for circulating HBsAg / hepatic viral RNAs: entecavir 500 ng/kg PO daily for 14 days alone. Here is the method:
The RNAi oligonucleotides targeting the S antigen impact both the viral polymerase and HBsAg protein. In this study, the combinational effects of HBV(s)-219P2 as a monotherapy and combinational treatment with entecavir was explored in an HBV-expressing mouse (HDI model) for antiviral activity.
Mice were administered daily oral dosing of 500 ng/kg Entecavir (ETV) for 14 days. A single subcutaneous administration of HBV(s)-219P2 took place. Circulating viral load (HBV DNA) was measured by qPCR (FIG. 25A), plasma HBsAg level was measured by ELISA (FIG. 25B), and liver HBV mRNA and pgRNA levels were measured by qPCR.

Data set [2] relates to HBV Genotype A S ORF target sites fused to reporter gene. In words: psiCHECK-2 dual-luciferase reporter mismatch assay in HeLa cells. Type of data set: cell-based. The text has this: A psiCHECK-2 dual-luciferase reporter system was utilized to evaluate the effects of a mismatch at a selected position in each of HBV-217, HBV-219, HBV-254, HBV-255, and HBV-258. The psiCHECK vector enables monitoring of changes in expression of a target gene fused to a reporter gene, where active RNAi degrades the fusion construct to produce a corresponding decrease in reporter signal. The diagram in FIG. 16 generically depicts the vector utilized in these assays. The parent partial reporter sequence contained 120 base-pair fragments from Genotype A (GenBank: AM282986.1) around target sites of interest in the S ORF. […]
The psiCHECK2 reporter assays with each oligonucleotide were conducted over a three-day period using a 6-point, 5-fold serial dilution starting at 1 nM transfected in HeLa cells. […] The cells were then incubated at 37° C. in a CO2 incubator until the cells were ready to harvest and assay for the target gene. On day 3, 100 μL of Dual-Glo Reagent was added to each well, mixed and incubated for 10 minutes before reading the luminescence. A further 100 μL of Dual-Glo Stop & Glo was added to each well, mixed and incubated for 10 minutes before reading the luminescence. […] The EC50s values determined for each oligonucleotide are shown in Table 15 with additional specifications.
In general terms: A reporter such as luciferase makes a cellular process visible.

Data set [3] concerns HBV. In words: HBsAg levels in HDI-mice after subcutaneous oligonucleotide. Type of data set: in vivo.
Source text: HBsAg levels were monitored in both oligonucleotide treated and untreated control mice for a period spanning 147 days.

With `C=C1[C@H](CO)[C@@H](O)C[C@@H]1n1cnc2c(=O)[nH]c(N)nc21` [Entecavir], the “mean decrease in HBV DNA detected in plasma relative to PBS” value with HBV [1] (entecavir 500 ng/kg PO daily for 14 days) is reported as approximately 1.6 log. Besides, the “circulating HBsAg” value with HBV [1] is given as “no efficacy”; in the data set with HBV [1] (listed as entecavir), “No significant decrease”. Further, the “hepatic viral RNAs” value with HBV [1] is listed as “no efficacy”; in the data set on HBV [1] (listed as entecavir) it was “No significant decrease”.
Consider “HBV-254: HBsAg-targeting duplex oligonucleotide, sense SEQ ID NO: 55, antisense SEQ ID NO: 56 (sense GUGGUGGACUUCUCUCAAUAGCAGCCGAAAGGCUGC; antisense {MOP}-mU*fA*fU*mUfGmAfGfAmGfAmAfGmUfCmCfAmCmCfAmC*mG*mG; sense: chemistry not given here; tetraloop form)”, for which the EC50 is 0.096 nM in data set [2] (mismatch duplex, single mismatch to reporter plasmid, read-out: MM EC50s) and 0.037 nM in data set [2] (parent duplex, 100% homology to reporter plasmid, read-out: Parent EC50s). The HBsAg levels entry in the data set with HBV [3] (HDI-mice, single subcutaneous dose evaluation) is given as “systematically reduced HBsAg levels in mice with increasing dosage”; with HBV [3] (mice, QW×3, 3 mg/kg subcutaneous, monitored 147 days) it was “Diminished HBsAg levels persisted in treated mice throughout the entirety of the study”.
